Usually IC50 stands for the concentration that gives 50% inhibition.

Each structure is given as a SMILES string. Where two headings read alike, the source gives them in different places.

One assay relates to HL-7002 cells. The experiment in a line: cell viability (MTS) assay, fetal hepatocytes HL-7002. It counts as cell-based, human. To be noted: HL-7002 immortalized fetal hepatic cells, 0.01 to 300 μM, OD490, read-out: IC50 to reduce HL-7002 cell number. As to the method:
(§1) The index of cell growth repression ratio was obtained by comparing the OD490 data of treatment group to the negative control. The drug response rate IC50 was calculated with the SPSS 16.0 system.
(§2) Cell culture: Prostate cancer cell lines LNCaP and PC-3 were purchased from ATCC (Manassas, Va.). The fetal hepatocytes HL-7002 and human embryonic kidney cells […] were purchased from ATCC. The cells were cultured in RPMI+5% Fetal Bovine Serum (FBS).
(§3) The cells treated with the solvents were used as the negative control, and cisplatin and docetaxel were used as the positive controls. The cells were monitored daily, and the cell viability was evaluated with the Promega CellTiter 96 AQueous One Solution Cell Proliferation Assay (Promega, Madison, Wis., USA) according to the manufacture manuals. The cell viability was monitored at OD490 reading in a bio-spectrometer (Perkin Elmer, Walthan, Mass., USA).
(§4) Data analysis: The OD490 reading data were collected hourly from 1 h to 4 h after the addition of lysis buffer. The index of cell growth repression ratio was obtained by comparing the OD490 data of treatment to the negative control. The drug response rate IC50 was calculated with the SPSS 16.0.
The index of cell growth repression ratio was obtained by comparing the OD490 data of treatment group to the negative control. The drug response rate IC50 was calculated with the SPSS 16.0 system. […]

The next assay concerns HT29 cells. Put plainly: cell viability (MTS) assay, HT29 colorectal cancer cells. The assay is classed as cell-based. To be noted: OD490, read-out: IC50 to reduce HT29 cell number. Here is the method:
HT29 cells are a colorectal cancer cell line. […] The index of cell growth repression ratio was obtained by comparing the OD490 data of treatment group to the negative control. The drug response rate IC50 was calculated with the SPSS 16.0 system.
(§5) Cell culture: Colorectal cancer cell lines HCT-116 and HT29 were purchased from ATCC (Manassas, Va.). The fetal hepatocytes HL-7002 and human embryonic kidney cells […] were purchased from ATCC. The cells were cultured in RPMI+5% Fetal Bovine Serum (FBS).
as §3, §4

The test system of a further assay is HCT-116 cells. Put plainly: cell viability (MTS) assay, HCT-116 colorectal cancer cells. The assay is classed as cell-based. To be noted: drugs 0.01 to 300 μM, OD490, read-out: IC50 to reduce HCT-116 cell number. Here is the method: HCT-116 cells are a colorectal cancer cell line. […] The index of cell growth repression ratio was obtained by comparing the OD490 data of treatment group to the negative control. The drug response rate IC50 was calculated with the SPSS 16.0 system.
as §5, §3, §4

The test system of another assay is HEK293 cells. Put plainly: cell viability (MTS) assay, embryonic kidney cell line HEK293. The assay is classed as cell-based, human. To be noted: HEK293 immortalized fetal kidney cells, 0.01 to 300 μM, OD490, read-out: IC50 to reduce HEK293 cells. Here is the method: HEK293 cells are an immortalized human fetal kidney cell line. […] The index of cell growth repression ratio was obtained by comparing the OD490 data of treatment group to the negative control. The drug response rate IC50 was calculated with the SPSS 16.0 system.
as §2, §3, §4, §1, §5

A further assay has as its system PC-3 cells. The experiment in a line: cell viability (MTS) assay, PC-3 prostate cancer cells. It counts as cell-based. To be noted: Homo sapiens, drugs 0.01 to 300 μM, OD490, read-out: IC50 to reduce PC-3 cell number. As to the method: The index of cell growth repression ratio was obtained by comparing the OD490 data of treatment group to the negative control. The drug response rate IC50 was calculated with the SPSS 16.0 system. […] The fetal hepatocytes HL-7002 and human embryonic kidney cells […] were purchased from ATCC. The cells were cultured in RPMI+5% Fetal Bovine Serum (FBS). […] The cells treated with the solvents were used as the negative control, and cisplatin and docetaxel were used as the positive controls. The cells were monitored daily, and the cell viability was evaluated with the Promega CellTiter 96 AQueous One Solution Cell Proliferation Assay (Promega, Madison, Wis., USA) according to the manufacture manuals. The cell viability was monitored at OD490 reading in a bio-spectrometer (Perkin Elmer, Walthan, Mass., USA). Data analysis: The OD490 reading data were collected hourly from 1 h to 4 h after the addition of lysis buffer. The index of cell growth repression ratio was obtained by comparing the OD490 data of treatment to the negative control. The drug response rate IC50 was calculated with the SPSS 16.0.

The next assay concerns LNCaP cells. The experiment in a line: cell viability (MTS) assay, LNCaP prostate cancer cells. It counts as cell-based. To be noted: Homo sapiens, drugs 0.01 to 300 μM, OD490, read-out: IC50 to reduce LNCaP cell number. Here is the method: The index of cell growth repression ratio was obtained by comparing the OD490 data of treatment group to the negative control. The drug response rate IC50 was calculated with the SPSS 16.0 system. Cell culture: Prostate cancer cell lines LNCaP and PC-3 were purchased from ATCC (Manassas, Va.). The fetal hepatocytes HL-7002 and human embryonic kidney cells […] were purchased from ATCC. The cells were cultured in RPMI+5% Fetal Bovine Serum (FBS). […] The cells treated with the solvents were used as the negative control, and cisplatin and docetaxel were used as the positive controls. The cells were monitored daily, and the cell viability was evaluated with the Promega CellTiter 96 AQueous One Solution Cell Proliferation Assay (Promega, Madison, Wis., USA) according to the manufacture manuals. The cell viability was monitored at OD490 reading in a bio-spectrometer (Perkin Elmer, Walthan, Mass., USA). Data analysis: The OD490 reading data were collected hourly from 1 h to 4 h after the addition of lysis buffer. The index of cell growth repression ratio was obtained by comparing the OD490 data of treatment to the negative control. The drug response rate IC50 was calculated with the SPSS 16.0.

As to `O=c1[nH]cc(F)c(=O)[nH]1` [5-FU, fluorouracil], the IC50 with HL-7002 cells (Homo sapiens, Hepatocyte) was 4.42 µM; in the assay with HT29 cells (Homo sapiens, HT-29, drugs 0.01 to 300 μM), 7.56 µM; in the assay on HCT-116 cells (Homo sapiens), 4.21 µM; in the assay on HEK293 cells (Homo sapiens), 3.74 µM.
On to `O=C1[O][Pt]2([NH][C@@H]3CCCC[C@H]3[NH]2)[O]C1=O` [oxaliplatin], for which the half-inhibitory concentration (IC50) with HL-7002 cells was determined as 2.44 µM; in the assay on HT29 cells (drugs 0.01 to 300 μM), 30 µM; in the assay with HCT-116 cells, 8.15 µM; in the assay with HEK293 cells, 10.1 µM.
As to `CC(=O)O[C@@]12CO[C@@H]1C[C@H](O)[C@@]1(C)C(=O)[C@H](O)C3=C(C)[C@@H](OC(=O)[C@H](O)[C@@H](NC(=O)OC(C)(C)C)c4ccccc4)C[C@@](O)([C@@H](OC(=O)c4ccccc4)[C@H]21)C3(C)C` [docetaxel], the IC50 with PC-3 cells stood at 49.9 µM; in the assay with LNCaP cells it was 4.03 µM; in the assay with HEK293 cells (Homo sapiens) it was 1.74 µM.

Values taken from patent US10421770B2, “Pharmaceutical composition of carboplatin based co-crystals and use thereof” (SYN-NAT PRODUCTS ENTERPRISE LLC, priority 2015, dated 2019).
